Assay results taken from US20090142363A1, “CYTOTOXIC T-CELL EPITOPE PEPTIDE AND USE THEREOF” (priority 2005, published 2009).
No end group written: not given here.

What was measured:
[1] = test system: PBMCs of healthy adults reactive to the anti-HLA-A*24 antibody; test: Induction of specific CTLs from PBMCs, method for quantifying cells producing intracellular IFNγ; format: cell-based, human; design: key to specific CTL induction, cytokine quantification method: ∘: “open circle” indicates that the use of a candidate peptide enabled specific CTLs to be induced; x: “cross” indicates that specific CTLs was unable to be induced; settings: for CD8-positive, IFNγ-positive cells in UR: HIV peptides added for restimulation as negative control; for peptide-specific cytokine production in PBMCs derived from ten people with HLA-A*24 molecule: summary of Table 2
Procedure: This induction method induces CTLs by adding peptides to culture media of PBMCs. Peptides are presented on antigen-presenting cells present among PBMCs, such as dendritic cells, B cells, macrophages, and certain types of T cells, whereby CTL precursor cells in PBMCs are stimulated to proliferate.
Peripheral blood collected from healthy adults that were reactive to the anti-HLA-A*24 antibody was centrifuged at 3,000 rpm for 5 to 10 minutes. The resulting supernatant plasma was collected. The non-plasma portion was processed according to a conventional method to isolate PBMCs. The characteristic of the present method is the addition of several % of plasma to an induction medium. In the present invention, a favorable result was obtained by adding 5% plasma. The medium is prepared by adding appropriate additives and antibiotics to a medium commonly used for cell culture. The CTL induction medium used in the present invention was RPMI1640 Hepes modify (Sigam) supplemented with 2-mercapotethanol, L-glutamine, and the antibiotics streptomycin and penicillin. In addition to these, insulin, transferrin, selenious acid, pyruvic acid, human serum albumin, solution of non-essential amino acids, and the like may be added. 1 to 3×10^6 PBMCs were suspended in 1 to 2.5 ml of the culture medium. A candidate peptide was added to the cells at a concentration of 1 to 20 μg/ml. The concentration of peptide can be altered depending on the solubility of the peptide. The peptide was added at 10 μg/ml. After two days, IL-2 was added at a final concentration of 20 to 100 U/ml. Round-bottomed culture dishes that allow the exchange of carbon dioxide gas are preferably used to co-culture PBMCs with peptides. In the context of the present invention, 14-ml round-bottomed polypropylene tubes (Becton Dikinson) or 96-well U-bottomed cell culture microtest plates (Becton Dikinson) were used. The adenovirus-specific CTLs were confirmed after about two and four weeks of culture. The cells were stimulated again with the peptide at 10 μg/ml after about two weeks of culture. When the induction of adenovirus-specific CTLs was confirmed, the cells were further stimulated with peptide-pulsed antigen-presenting cells to establish CTL lines.
Approximately 1/10 to all of the cells induced by the above-described method were transferred into 96-well U-bottomed cell culture microtest plates, and the peptide used for the induction was added thereto at a final concentration of 0.01 to 0.05 μg/ml. Then, an intracellular protein transport inhibitor (for example, brefeldin A, monensin, or such) was added, and the cells were cultured in a 5% CO2 incubator at 37° C. for 5 to 16 hours. After culture, the cells were washed, and phycoerythrin (PE)-labeled MHC-tetramer reagent and phycoerythrin-Cy5(PC5)-labeled CD8 antibody (Beckman Coulter) were added thereto. The resulting mixture was allowed to stand at room temperature for 15 to 30 minutes. After washing, the cells were fixed with 4% formaldehyde at 4° C. for 15 minutes and washed with an excess amount of washing solution. After membrane permeabilization treatment with 0.1% saponin, an FITC-labeled anti-IFNγ antibody (Beckman Coulter) was added, and reacted at room temperature for 15 to 30 minutes. After washing, the proportion of IFNγ-positive cells in T cells or MHC-tetramer reagent-positive cells was determined using a flow cytometer.
PBMCs derived from ten people with HLA-A*24 molecule were tested using 10 types of peptides. […] Thus, these six types of candidate epitope peptides serve as adenovirus-specific CTL epitope peptides. Since the adenovirus-specific CTL epitope peptides have the HLA-A*24-binding motif, they are likely to be HLA-A*2402-restricted epitope peptides, which are carried by 60% or more of the Japanese people. In the context of the results described above, MHC-tetramer reagents were synthesized using five types of epitope peptides, and their utility was tested.

[2] = test system: peripheral blood / PBMCs / peptide-induced CTL lines of HLA-A*24 donors; test: Staining of peripheral blood, PBMCs or peptide-induced CTL lines with MHC-tetramer reagents; format: cell-based, human; settings: for profile of tetramer-positive cells: donor ID*24-12, peptide-induced cells; for population of CD8-negative, tetramer reagent-positive cells in the UL / population of CD8-positive, tetramer-positive cells in the UR: peptide-induced CTL lines; for population of CD8-negative, tetramer reagent-positive cells in the UL: FIG. 5, VYS-Tet: donor ID*24-1, *24-3, *24-11, *24-12, *24-14; for staining pattern at day 10 compared to Negative Tetramer reagent: donor ID*24-8, 10 days culture with peptide; for population of CD8-positive, tetramer-positive cells in the UR: donor ID*24-2 and *24-8, FIG. 5
Procedure: MBL Co. where the present inventors are affiliated with has acquired exclusive patent licensing rights in Japan for MHC-tetramer reagents (U.S. Pat. No. 5,635,363; French Application No. FR9911133; and U.S. Pat. Nos. 5,723,584, 5,874,239, 5,932,433, and 6,265,552) from Beckman Coulter Co. Based on the patents, PE-labeled MHC-tetramer reagents were prepared using adenovirus-specific CTL epitope peptides and HLA-A*2402 molecules.
Adenovirus-specific CTLs quantification was carried out using MHC-tetramer reagents that was prepared using CTL epitope peptides of the present invention, with peripheral blood, PBMCs isolated from peripheral blood, CTL lines induced using CTL epitope peptides as samples. Examples of quantification using PE-labeled MHC-tetramer reagents are described below. Labelling dyes may be used in an appropriate combination depending on the type of flow cytometer to be used, and is not limited to the examples described below.
Ten μl of a PE-labeled MHC-tetramer reagent, 20 μl of an FITC-labeled antibody for T cell (for example, CD8, CD4, or CD3), and such were added to 200 μl of collected peripheral blood. A CD45 antibody labeled with PC5 or such may also be added to eliminate nonspecific fluorescence due to contaminated erythrocytes. After gentle mixing, the mixture was allowed to stand at room temperature for 30 minutes. OptiLyse B was added, and erythrolysis and fixation was carried out according to the manufacturer's protocol. Two ml of PBS was added, stirred, and the cells were centrifuged at 400×g for 5 minutes. After the supernatant was removed by aspiration, the cells were resuspended in 500 μl of PBS and analyzed using a flow cytometer within 24 hours.
Ten μl of a PE-labeled MHC-tetramer reagent, 20 μl of an FITC-labeled T cell surface antibody (for example, CD8, CD4, or CD3), and such were added to an appropriate amount of PBMCs (10^5 to 10^6 cells) or a CTL line induced by use of CTL epitope peptides. A CD45 antibody labeled with PC5 or such may also be added to eliminate nonspecific fluorescence due to contaminated erythrocytes. After gentle mixing, the cells were allowed to stand at room temperature for 30 minutes. Three ml of PBS was added, stirred, and the cells were centrifuged at 400×g for 5 minutes. After the supernatant was removed by aspiration, the cells were resuspended in 500 μl of PBS. When a CTL line is used, 7-AAD Viability Dye (Non-viable cell detection reagent; MBL Co.) may be added to eliminate nonspecific fluorescence caused by non-viable cells. The cells were analyzed using a flow cytometer within 24 hours.
The results of staining obtained using the five types of MHC-tetramer reagents used to prepare the peptide-induced CTL lines are shown in FIG. 5.

[3] = PBMCs from donor ID*24-14 after 24 days of stimulation with LYA

Substance	specific CTL induction, cytokine quantification method ([1]; donor ID *24-1)	specific CTL induction, cytokine quantification method ([1]; donor ID *24-2)	specific CTL induction, cytokine quantification method ([1]; donor ID *24-3)	specific CTL induction, cytokine quantification method ([1]; donor ID *24-5)	specific CTL induction, cytokine quantification method ([1]; donor ID *24-8)	specific CTL induction, cytokine quantification method ([1]; donor ID *24-10)	specific CTL induction, cytokine quantification method ([1]; donor ID *24-11)	specific CTL induction, cytokine quantification method ([1]; donor ID *24-12)	specific CTL induction, cytokine quantification method ([1]; donor ID *24-13)	specific CTL induction, cytokine quantification method ([1]; donor ID *24-14)	also measured
RYLRDQQLL [HIV peptide, reference compound]											CD8-positive, IFNγ-positive cells in UR ([1]; donor *24-8): 0.62%; CD8-positive, IFNγ-positive cells in UR ([1]; donor *24-12): 0.18%
HLA-A*2402 DYLSAANML (Seq Id No: 1) Tetramer Reagent [DYL-Tet]											profile of tetramer-positive cells [2]: no relevant profile
QYDPVAALF [CMV pp65, reference compound]											specific CTLs (CD8-positive MHC-tetramer reagent-positive cells, UR) ([2]; donor ID*24-2, 13 days stimulation with the peptide, then HIV peptide added, % of whole viable cells): 28.8%
NYIGFRDNF	x	x	x	x	x	x	x	x	x	x	
GYKDRMYSF	x	x	x	x	∘	x	x	x	x	x	specific CTL induction confirmed by CD8-positive, IFNγ-positive cells versus HIV peptide ([1]; donor ID*24-8, FIG. 3a-d): induced specific CTLs; peptide-specific cytokine production in PBMCs derived from ten people with HLA-A*24 molecule [1]: induce cytokine production in a peptide-specific manner
HLA-A*2402 LYANSAHAL (Seq Id No: 2) Tetramer Reagent [LYA-Tet]											CD3-positive, LYA-Tet-positive cells [2, 3]: 1.13%; CD4-positive, LYA-Tet-positive cells [2, 3]: 0.09%; CD8-positive, LYA-Tet-positive cells [2, 3]: 0.18%; population of CD8-negative, tetramer reagent-positive cells in the UL [2]: detected
HLA-A*2402 LYSNVALYL (Seq Id No: 5) Tetramer Reagent [LYS-Tet]											profile of tetramer-positive cells [2]: no relevant profile
SYQLLLDSL	x	x	x	x	x	x	x	x	x	x	
HLA-A*2402 TYFNLGNKF (Seq Id No: 4) Tetramer Reagent [TYF-Tet]											staining pattern at day 10 compared to Negative Tetramer reagent [2]: clear CD8-positive, MHC-tetramer-positive pattern; population of CD8-positive, tetramer-positive cells in the UR [2]: clearly detected
NYNIGYQGF	x	x	x	x	x	x	x	x	x	x	
DYLSAANML	∘	∘	x	x	x	∘	x	∘	x	x	CD8-positive, IFNγ-positive (producing) cells in UR ([1]; donor *24-12, restimulation with the same peptide as used in the induction, % in PBMCs): 0.49%; specific CTL induction confirmed by CD8-positive, IFNγ-positive cells versus HIV peptide ([1]; donor ID*24-12, FIG. 3e-h): specific CTL induction was confirmed; peptide-specific cytokine production in PBMCs derived from ten people with HLA-A*24 molecule [1]: induce cytokine production in a peptide-specific manner; number of persons with peptide-specific IFNγ production / CTL induction ([1]; ten persons tested): four of the ten persons
KYTPSNVTL	x	x	x	x	x	x	x	x	x	x	
HLA-A*2402 VYSGSIPYL (SEQ ID NO: 3) Tetramer Reagent [VYS-Tet]											staining pattern at day 10 compared to Negative Tetramer reagent [2]: clear CD8-positive, MHC-tetramer-positive pattern; population of CD8-negative, tetramer reagent-positive cells in the UL [2]: detected; population of CD8-positive, tetramer-positive cells in the UR [2]: clearly detected
